Results as given in PMC3376404 (Bioorganic & medicinal chemistry letters, 2012).
Several values for one entry are separate records, joined by “and”; a condition that tells them apart may be missing. Equal values may be shown once. Read-outs that look alike come from different tables or passages of the source.

Columns and labels:
[1] = Decomposition; assay type: physicochemical; details: for kobs (apparent rate constant for decomposition): no thiol, compound 70 μM, MOPS 250 mM, pH 7, MeCN 25% v/v, 24 °C
[2] = Reaction with the biological thiol glutathione; assay type: physicochemical; details: for kobs (pseudo-first-order rate constant, + thiol): compound 70 μM, 24 °C; for kobs (pseudo-first-order rate constant, + thiol) / second-order rate constant for reaction with GSH: GSH 700 μM, MOPS 300 mM, pH 7, MeCN 25% v/v; for second-order rate constant for reaction with GSH: estimated from kobs
[3] = 100 μM 1 in HEPES, 250 mM, pH 7, 24 °C, no organic co-solvent; cited from earlier work
[4] = HEPES buffer, 50 mM, pH 7, 24 °C, no organic co-solvent; cited from earlier work

Structure (SMILES)	kobs (decomposition) ([1]; 300 mM MOPS, pH 7.0)	kobs (decomposition) ([1]; 500 mM MOPS)	kobs (apparent rate constant for decomposition) [1]	kobs (decomposition) ([1]; pH 6.5, 300 mM MOPS)	kobs (decomposition) ([1]; pH 7.5, 300 mM MOPS)	stability relative to the cis isomer in aqueous buffered solution ([1]; trans isomer 6 versus cis isomer 5)	kobs (pseudo-first-order rate constant, + thiol) [2]	second-order rate constant for reaction with GSH [2]	rate constant (decomposition) [3]	t1/2 (decomposition) [3]	times more stable than 5 against decomposition in aqueous buffer ([1]; relative to 5)	times more stable than 6 against decomposition in aqueous buffer ([1]; relative to 6)	times less reactive toward GSH than compound 5 ([2]; relative to 5)	second-order rate constant for reaction with GSH [4]
CC1(C)[S+]([O-])SC(=O)[C@]1(C)O (some centres unmarked) [Compound 6, 4-hydroxy-4,5,5-trimethyl-1,2-dithiolan-3-one-1-oxide]	1.5 ± 0.2 × 10^−2 min^-1 and 1.5 × 10^−2 min^-1	1.9 ± 0.2 × 10^−2 min^-1	6.2 ± 0.6 × 10^−3 min^-1	0.0087 min⁻¹	0.047 min⁻¹	approximately two times more stable	18.3 ± 0.2 × 10^−2 min^-1	4.35 M⁻¹ s⁻¹						
CC1(C)[S+]([O-])SC(=O)[C@@]1(C)O (some centres unmarked) [Compound 5, 4-hydroxy-4,5,5-trimethyl-1,2-dithiolan-3-one-1-oxide]			13.2 ± 0.01 × 10^−3 min^-1				24.3 ± 0.1 × 10^−2 min^-1	5.73 M⁻¹ s⁻¹						
C/C1=C\[C@@H](O)C(=O)/C=C/C=C\c2csc(n2)[C@@H](C)NC(=O)C[C@@]2(CC1)[S+]([O-])SC(=O)[C@]2(C)O (some centres unmarked) [Compound 1, Leinamycin, reference compound]			0.408 ± 0.001 × 10^−3 min^-1				6.67 ± 0.01 × 10^−2 min^-1	1.58 M⁻¹ s⁻¹	0.00072 min⁻¹	16.1 h	approximately 30 times	~15 times	3.6 times	10.4 M⁻¹ s⁻¹
